What is called MIC is the lowest concentration found to suppress growth.

Molecules are shown by their SMILES. ≈ marks a conversion by molar mass, not a printed value. Where only a bound is given, the exact number is not on record here.

What all share (format): functional
In assay [1] the test system is Echinochloa crus-galli. Kind of assay: Herbicidal activity against Echinochloa crus-galli (barnyard grass) assessed as growth rate at 3 g/acre.
Assay [2] deals with Oryza sativa. Kind of assay: Phytotoxicity in Oryza sativa (rice) assessed as assessed as growth rate at 10 g/acre by Oryza sativa (rice) injury assay.
Assay [3] concerns Echinochloa crus-galli. The assay is described as follows: Herbicidal activity against Echinochloa crus-galli (barnyard grass) assessed as growth rate at 30 g/acre.
The test system of assay [4] is Oryza sativa. Kind of assay: Phytotoxicity in Oryza sativa (rice) assessed as assessed as growth rate at 30 g/acre by Oryza sativa (rice) injury assay.
Assay [5] relates to Echinochloa crus-galli. The assay is described as follows: Herbicidal activity against Echinochloa crus-galli (barnyard grass).
Assay [6] has as its system Echinochloa crus-galli. The assay is described as follows: Herbicidal activity against Echinochloa crus-galli (barnyard grass) assessed as growth rate at 1 g/acre.

As for `CC[C@H]1O[C@@H]2c3ccccc3CO[C@@H]2[C@H]1OCc1ccsc1`, the Activity in assay [1] came out at 71%; in assay [2], 91%; in assay [3], 0%; in assay [4], 91%; in assay [6] it was 91%. This molecule also gave an MIC in assay [5] of 0.3 µg/mL (≈ 0.948 µM).

With `CC[C@H]1O[C@@H]2c3ccccc3CO[C@@H]2[C@H]1OCc1ccc2ccccc2c1`, the Activity in assay [1], in assay [2], in assay [3], in assay [4] and in assay [6] was 91% throughout. The molecule also gave an MIC in assay [5] of over 10 µg/mL.

For `CC[C@H]1O[C@@H]2c3ccccc3CO[C@@H]2[C@H]1OCc1cccc2ccccc12`, the Activity in assay [1], in assay [2], in assay [3], in assay [4] and in assay [6] was 91% throughout. The molecule further yielded an MIC in assay [5] of 10 µg/mL (≈ 27.7 µM).

For the molecule `CC[C@H]1O[C@@H]2c3ccccc3CO[C@@H]2[C@H]1OCC1CCCCC1`, the Activity in assay [1] worked out at 91%; in assay [2] it was 91%; in assay [3] it was 11%; in assay [4] it was 91%. This molecule also came in with an MIC in assay [5] of 10 µg/mL (≈ 31.6 µM).

For the molecule `CC[C@H]1O[C@@H]2c3ccccc3CO[C@@H]2[C@H]1OC(=O)c1ccccc1`, the Activity in assay [1] is given as 91%; in assay [2], 91%; in assay [3] it was 6%; in assay [4], 91%. The same molecule came in with an MIC in assay [5] of 3.3 µg/mL (≈ 10.2 µM).

Consider `CC[C@H]1O[C@@H]2c3ccccc3CO[C@@H]2[C@H]1OC(C)=O`, for which the Activity in assay [1], in assay [2], in assay [3], in assay [4] and in assay [6] was 91% in each case. Also, in assay [5], inhibition of growth (MIC) required 80 µg/mL (≈ 305 µM).

As for `CC[C@H]1O[C@@H]2c3ccccc3CO[C@@H]2[C@H]1O[Si](C)(C)C(C)(C)C`, the Activity in assay [1], in assay [2], in assay [3], in assay [4] and in assay [6] was 91% each time. The molecule further gave an MIC in assay [5] of over 100 µg/mL.

Regarding `CC[C@H]1O[C@@H]2c3ccccc3[C@H](C)O[C@@H]2[C@H]1OCc1ccccc1F`, the Activity in assay [1] turned out to be 0%; in assay [2], 11%; in assay [3] it was 0%; in assay [4] it was 0%; in assay [6], 0%. Besides, it took 0.2 µg/mL (≈ 0.584 µM) to inhibit growth in assay [5] (MIC).

On to `CC[C@H]1O[C@@H]2c3ccccc3[C@@H](C)O[C@@H]2[C@H]1OCc1ccccc1F`, for which the Activity in assay [1] came to 6%; in assay [2] it was 91%; in assay [3], 0%; in assay [4], 0%; in assay [6] it was 11%. The molecule further registered an MIC in assay [5] of 0.7 µg/mL (≈ 2.04 µM).

Take `CC[C@@H]1O[C@@H]2[C@@H](OCc3ccccc3F)[C@@H](CC)O[C@@H]2c2ccccc21`: the Activity in assay [1] worked out at 11%; in assay [3] it was 0%; in assay [4], 0%; in assay [6], 91%. The MIC in assay [5] stood at 0.4 µg/mL (≈ 1.12 µM).

For the molecule `CC[C@H]1O[C@@H]2[C@@H](OCc3ccccc3F)[C@@H](CC)O[C@@H]2c2ccccc21`, the Activity in assay [1] came to 91%; in assay [3], 0%; in assay [4], 71%; in assay [6], 91%. For the same molecule, in assay [5], the MIC was 0.8 µg/mL (≈ 2.24 µM).

Take `CC[C@H]1O[C@@H]2c3ccccc3C(C)(CBr)O[C@@H]2[C@H]1OCc1ccccc1F` (stereo partly drawn): the Activity in assay [1] was determined as 71%; in assay [2] it was 91%; in assay [3], 0%; in assay [4] it was 91%. Moreover, the MIC in assay [5] was over 3 µg/mL.

Regarding `CC[C@H]1O[C@@H]2c3ccccc3C(C)O[C@@H]2[C@H]1OCc1ccccc1C` (stereo partly drawn), the Activity was 0% in assay [1]; 11% in assay [2]; 0% in assay [3]; 11% in assay [4]; 6% in assay [6]. In assay [5], this molecule yielded an MIC of 0.2 µg/mL (≈ 0.591 µM).

With `CC[C@H]1O[C@@H]2c3ccccc3C(=O)O[C@@H]2[C@H]1OCc1ccccc1C`, the Activity in assay [2] came out at 91%; in assay [3], 11%; in assay [4], 91%. The molecule further yielded an MIC in assay [5] of 3 µg/mL (≈ 8.87 µM).

`CC[C@H]1O[C@@H]2C[C@](C)(c3ccccc3)O[C@@H]2[C@H]1OCc1ccccc1F`: the Activity in assay [1] is given as 6%; in assay [2], 91%; in assay [3], 0%; in assay [4] it was 6%. This molecule showed an MIC in assay [5] of 0.1 µg/mL (≈ 0.281 µM).

As for `CC[C@H]1O[C@@H]2c3sccc3CO[C@@H]2[C@H]1OCc1ccccc1F`, the Activity in assay [1] stood at 0%; in assay [2] it was 6%; in assay [3] it was 0%; in assay [4] it was 0%; in assay [6], 6%. In assay [5], this molecule yielded an MIC of 0.1 µg/mL (≈ 0.299 µM).

Regarding `CC[C@H]1O[C@@H]2c3ccsc3CO[C@@H]2[C@H]1OCc1ccccc1F`, the Activity in assay [1] was 0%; in assay [2], 91%; in assay [3], 0%; in assay [4], 91%; in assay [6], 6%. The same molecule yielded an MIC in assay [5] of 0.3 µg/mL (≈ 0.897 µM).

In the case of `CC[C@H]1O[C@@H]2c3ccsc3CO[C@@H]2[C@H]1OCc1ccccc1C`, the Activity in assay [1] is listed as 11%; in assay [2], 91%; in assay [3], 0%; in assay [4], 91%. In assay [5], this molecule showed an MIC of 0.7 µg/mL (≈ 2.12 µM).

As to `CC[C@H]1O[C@@H]2c3occc3CO[C@@H]2[C@H]1OCc1ccccc1C`, the Activity is 41% in assay [1]; 91% in assay [2]; 6% in assay [3]; 71% in assay [4]; 91% in assay [6]. For the same molecule, the lowest concentration to inhibit growth in assay [5] (MIC) was 0.2 µg/mL (≈ 0.636 µM).

Take `CC[C@H]1O[C@@H]2c3ccccc3CO[C@@H]2[C@H]1O`: the Activity in assay [1], in assay [2], in assay [3], in assay [4] and in assay [6] was 91% each time.

`CC[C@H]1O[C@@H]2c3ccccc3CO[C@@H]2[C@H]1OCc1ccccc1`: the Activity is reported as 6% in assay [1]; 11% in assay [2]; 0% in assay [3]; 0% in assay [4]; 11% in assay [6]. In assay [5], this molecule showed an MIC of 0.4 µg/mL (≈ 1.29 µM).

As to `CC[C@H]1O[C@@H]2c3ccccc3CO[C@@H]2[C@H]1OCc1ccccc1F`, the Activity in assay [1] worked out at 6%; in assay [2] it was 71%; in assay [3], 0%; in assay [4], 11%; in assay [6] it was 11%. In assay [5], this molecule gave an MIC of 0.2 µg/mL (≈ 0.609 µM).

Turning to `CC[C@H]1O[C@@H]2c3ccccc3CO[C@@H]2[C@H]1OCc1cccc(F)c1`, the Activity in assay [1] was found to be 0%; in assay [2], 91%; in assay [3], 0%; in assay [4] it was 91%; in assay [6], 11%. The MIC in assay [5] is 0.3 µg/mL (≈ 0.914 µM).

On to `CC[C@H]1O[C@@H]2c3ccccc3CO[C@@H]2[C@H]1OCc1ccc(F)cc1`, for which the Activity in assay [1] is listed as 0%; in assay [2] it was 91%; in assay [3] it was 0%; in assay [4], 71%; in assay [6], 11%. In assay [5], this molecule returned an MIC of 1 µg/mL (≈ 3.05 µM).

Consider `CC[C@H]1O[C@@H]2c3ccccc3CO[C@@H]2[C@H]1OCc1ccccc1Cl`, for which the Activity was 6% in assay [1], 91% in assay [2], 0% in assay [3] and 91% in assay [4]. This molecule also gave an MIC in assay [5] of 0.2 µg/mL (≈ 0.58 µM).

For the molecule `CC[C@H]1O[C@@H]2c3ccccc3CO[C@@H]2[C@H]1OCc1ccccc1C`, the Activity is 0% in assay [1]; 11% in assay [2]; 0% in assay [3]; 0% in assay [4]; 11% in assay [6]. In assay [5], this molecule showed an MIC of 0.4 µg/mL (≈ 1.23 µM).

With `CCc1ccccc1CO[C@@H]1[C@H]2OCc3ccccc3[C@H]2O[C@@H]1CC`, the Activity was determined as 11% in assay [1], 91% in assay [2], 0% in assay [3] and 91% in assay [4]. Further, in assay [5], 0.6 µg/mL (≈ 1.77 µM) was the least that counted as inhibitory (MIC).

Take `CC[C@H]1O[C@@H]2c3ccccc3CO[C@@H]2[C@H]1OCc1ccccc1C#N`: the Activity in assay [1] turned out to be 91%; in assay [2], 91%; in assay [3] it was 0%; in assay [4] it was 91%; in assay [6], 91%. Further, in assay [5], it took 3.2 µg/mL (≈ 9.54 µM) to inhibit growth (MIC).

As to `CC[C@H]1O[C@@H]2c3ccccc3CO[C@@H]2[C@H]1OCc1ccccc1C(F)(F)F`, the Activity in assay [1] amounted to 71%; in assay [2], 91%; in assay [3] it was 0%; in assay [4] it was 91%; in assay [6], 91%. In addition, the MIC in assay [5] amounted to 0.4 µg/mL (≈ 1.06 µM).

In the case of `CC[C@H]1O[C@@H]2c3ccccc3CO[C@@H]2[C@H]1OC(C)c1ccccc1` (stereo partly drawn), the Activity was 41% in assay [1], 91% in assay [2], 0% in assay [3] and 91% in assay [4]. Moreover, 3 µg/mL (≈ 9.25 µM) was the least that counted as inhibitory in assay [5] (MIC).

Take `CC[C@H]1O[C@@H]2c3ccccc3CO[C@@H]2[C@H]1OC1CCc2ccccc21` (stereo partly drawn): the Activity in assay [1] is on record as 41%; in assay [2], 91%; in assay [3], 0%; in assay [4], 91%. Further, it took 0.3 µg/mL (≈ 0.892 µM) to inhibit growth in assay [5] (MIC).

Take `CC[C@H]1O[C@@H]2c3ccccc3CO[C@@H]2[C@H]1OCc1cccs1`: the Activity in assay [1] is on record as 11%; in assay [2], 91%; in assay [3], 0%; in assay [4] it was 91%; in assay [6], 91%. In addition, the minimum inhibitory concentration (MIC) in assay [5] worked out at 0.8 µg/mL (≈ 2.53 µM).

The values above are taken from ChEMBL document CHEMBL3046226, “Novel glycol benzyl ether herbicides: Herbicidal activity of 3,3a,5,9b-tetrahydro-2H-furo[3,2-c][2]benzopyran derivatives” (2006).
